Experimental data reported in ChEMBL document CHEMBL1201862, “PubChem BioAssay data set” (2004).
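Following 48 hours of exposure in 96-well plates, responses at five concentrations were used to interpolate endpoints linearly. Abbreviation: GI50, concentration required for 50% inhibition of growth.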 Active and inactive are the calls of the source. Cut-off read from the data, not from the text of the source: active = GI50 up to about 1.1 µM and inactive = higher.

Assays:
Assay in all cases: growth of human tumour cells (NCI), 48 h
[1] = test system: HCT-116
[2] = test system: Malme-3M
[3] = test system: DU-145
[4] = test system: OVCAR-3
[5] = test system: SF-295
[6] = test system: RXF 393
[7] = test system: UACC-257
[8] = test system: SNB-19
[9] = test system: EKVX
[10] = test system: ACHN
[11] = test system: OVCAR-5
[12] = test system: HL-60
[13] = test system: NCI-H460
[14] = test system: MOLT-4
[15] = test system: NCI-H226
[16] = test system: PC-3
[17] = test system: HCC 2998
[18] = test system: SN12C
[19] = test system: DLD-1

Measured: GI50

Cn1cc(-c2cnc(-c3cn(C)c4ccccc34)cn2)c2ccccc21
inactive: [1] 3.4 µM | [2] 5.11 µM | [3] 5.27 µM | [4] 3.04 µM | [5] 2.44 µM | [6] 3.25 µM | [7] 16 µM | [8] 4.71 µM | [9] 10.1 µM | [10] 5.83 µM | [11] 14 µM | [12] 2.72 µM | [13] 4.51 µM | [14] 5.66 µM | [15] 6.31 µM | [16] 3.73 µM | [17] 5.61 µM | [18] 8.85 µM

CSc1c(C#N)c(N)n2c1C(=O)N(c1ccccc1)C2=S
inactive: [1] 38.3 µM | [2] 90.4 µM | [3] > 100 µM | [4] > 100 µM | [5] 38.6 µM | [6] > 100 µM | [7] > 100 µM | [8] > 100 µM | [9] 8.2 µM | [10] 48.2 µM | [11] > 100 µM | [12] > 100 µM | [13] > 100 µM | [14] > 100 µM | [15] > 100 µM | [16] 61.7 µM | [17] > 100 µM | [18] 74 µM

CCOC(=O)Nc1ccc(S(=O)(=O)I)cc1.CCOC(=O)Nc1ccc(S(=O)(=O)I)cc1.CNC(=O)N=O.NC(=O)OCCCl
inactive: [1] > 100 µM | [2] 49.8 µM | [5] 78 µM | [7] 74.6 µM | [8] > 100 µM | [10] > 100 µM | [19] > 100 µM | [12] 45.3 µM | [13] > 100 µM | [14] > 100 µM | [17] > 100 µM | [18] > 100 µM

CN(C)c1ccc(N=O)c(O)c1.CN(C)c1ccc(N=O)c(O)c1.[SiH4]
inactive: [1] 6.5 µM | [2] 14.1 µM | [4] 3.71 µM | [5] 14.3 µM | [7] 14 µM | [8] 17.3 µM | [9] 15.3 µM | [10] 2.67 µM | [11] 24 µM | [19] 8.28 µM | [12] 4.41 µM | [14] 11.5 µM | [15] 16.4 µM | [17] 15.4 µM | [18] 12 µM

CN(C)Cc1cc(C(=O)/C=C/c2ccccc2Cl)cc(CN(C)C)c1O
inactive: [1] 5.42 µM | [2] 11 µM | [3] 12.3 µM | [4] 7.93 µM | [5] 14.6 µM | [6] 17.1 µM | [7] 15.4 µM | [8] 13.9 µM | [9] 14.7 µM | [10] 4.45 µM | [11] 23.1 µM | [12] 4.3 µM | [13] 4.6 µM | [14] 10.9 µM | [15] 24.3 µM | [16] 13.2 µM | [17] 20.2 µM | [18] 9.16 µM
